Test results as given in US20080227864A1, “Lhr1 Activators as Medicaments” (priority 2004, published 2008).

Experiments:
[1] = target: T1, Human LRH-1 Ligand Binding Domain (Homo sapiens, UniProt O00482); test: LRH-1 LBD / TIF2 Box3 coactivator peptide recruitment assay (Eu/APC, Lance mode); assay type: biochemical; conditions: n of 44
T1 construct: made in house; host or cells: E. coli BL21(DE3), pRSETa vector
Text: Human LRH-1 Ligand Binding Domain (LRH1 LBD) was expressed in E.coli strain BL21(DE3) as an amino-terminal polyhistidine tagged fusion protein. Expression was under the control of an IPTG inducible T7 promoter. DNA encoding this recombinant protein was subcloned into the pRSETa expression vector (Invitrogen). Sequence encoding the modified polyhistidine tag ([…]) was fused in frame to sequence encoding residues 248-501 of LRH-1. The coding sequence of Human LRH-1 LBD was derived from Genbank accession number U—93553.
Purified LRH-1 LBD was desalted/buffer exchanged using PD-10 gel filtration columns into PBS [100 mM NaPhosphate, pH 7.2, 150 mM NaCl]. LRH-1 LBD was diluted to approximately 10 microM in PBS and five-fold molar excess of NHS-LC-Biotin (Pierce) was added in a minimal volume of PBS. This solution was incubated with gentle mixing for 60 minutes at ambient room temperature. The biotinylation modification reaction was stopped by the addition of 2000× molar excess of Tris-HCl, pH 8. […]
The above solutions are gently mixed together to give a final preparation of 5E-9 M (5 nM) APC-labelled LRH1 LBD and 1E-8 M […] Europium-labelled TIF2 box3 peptide. […] The plates were incubated for 1 hr then read on Wallac Victor2 V in Lance mode for EU/APC. […]

[2] = tested on: APOAl mRNA levels in HepG2 cells; test: APOAl mRNA levels in HepG2 cells treated with compound (RT-QPCR); assay type: cell-based; conditions: 48 hours, 10 μm, vs vehicle (DMSO 0.1%), FIG. 4
Method: HepG2 and CV1 cells (ATCC, Rockville, Md.) were maintained in Basic Eagle's medium (BME) supplemented with 2 mM glutamine, 1% non-essential amino acids and 10% (v/v) fetal calf serum (FCS) in an atmosphere of 5% CO2 at 37° C.
Total cellular RNA was extracted using TRIZOL (Invitrogen). Real time quantitative PCR (RT-QPCR) assays were performed using an Applied Biosystems 7900 sequence detector. Total RNA (1 μg) was reverse transcribed with random hexamers using Taqman reverse-transcription reagents kit (Applied Biosystems) following the manufacturer's protocol. RNA expression levels were determined by Sybr green assays as described. 18SrRNA transcript was used as an internal control to normalize the variations for RNA amounts. Gene expression levels are expressed relative to 18S rRNA. Apo Al, Apo B, SR-Bl, SHP, LRH-1 and CYP7α mRNA levels were measured using the following oligonucleotides: For 18S: 5′-[…]-3′ and 5′-[…]-3′; for APO Al: 5′-[…]-3′ and 5′-[…]-3′; for Apo B: 5′-[…]-3′ and 5′-[…]-3′; for SR-Bl: 5′-[…]-3′ and 5′-[…]-3′; for SHP: 5′-[…]-3′ and 5′-[…]-3′; for LRH-1: 5′-[…]-3′ and 5′-[…]-3′; for CYP7α:5′-[…]-3′ and 5′-[…]-3′.
HepG2 cells, cultured in 24-well plates, were treated for 48 hours with Compound I, 10 μm or vehicle (DMSO 0.1%) prior to harvest and determination of APOAl mRNA levels by RT-QPOCR as described in Example 1 above.

T1 sequence (O00482 288-541): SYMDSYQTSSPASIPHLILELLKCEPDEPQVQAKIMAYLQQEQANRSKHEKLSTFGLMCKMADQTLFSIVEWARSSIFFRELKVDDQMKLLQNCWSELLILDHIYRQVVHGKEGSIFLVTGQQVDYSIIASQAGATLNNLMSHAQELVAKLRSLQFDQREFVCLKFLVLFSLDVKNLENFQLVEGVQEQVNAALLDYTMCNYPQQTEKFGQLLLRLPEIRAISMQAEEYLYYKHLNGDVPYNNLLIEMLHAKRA
T1 sequence (as listed by the source partner): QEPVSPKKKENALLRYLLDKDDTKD

- EC50 ([1]; LRH1 agonist activity, TIF2 Box3 peptide recruitment, read-out: ave pEC50 (converted)): 257 nM
- ave % basal (maximum observed increase in agonist activity compared to the vehicle control) [1]: 277 % basal
SMILES: CCC/C=C(\CCC)C1=C(c2ccccc2)[C@@]2(Nc3ccccc3)CCC[C@H]2C1 [Compound 1]
- APO Al gene expression (APOAl mRNA levels) [2]: Induces APO Al Gene Expression
